Some test systems named below: HL-60; SK-OV-3; EKVX; MDA-MB-435; KM12; HOP-92; MDA-MB-231; UACC-257; OVCAR-3; A498; SF-295; OVCAR-8; M14; SK-MEL-5; HOP-62; UACC-62; OVCAR-4; T47D; MOLT-4.
What all share (assay): DTP human tumour cell line panel, 48 h

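Values below derive from 48-hour exposures of cells grown in 96-well plates, with endpoints linearly interpolated between the two concentrations bracketing the appropriate inhibition level. The concentration for 50% growth inhibition is given as GI50.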 Activity calls are given as the source filed them. Cut-off read from the data, not from the text of the source: active = GI50 up to about 1.1 µM and inactive = higher.

Usually GI50 stands for the concentration at which growth is held to half of that of the control.

Take `O=C1CSC(c2ccccc2O)N1c1nc2cc3sc(N4C(=O)CSC4c4ccccc4O)nc3cc2s1` (stereo unspecified): the GI50 was 31.6 µM (inactive) in the experiment with HL-60; > 100 µM (inactive) in the experiment on SK-OV-3; 61.9 µM (inactive) in the experiment on EKVX; 34.3 µM (inactive) in the experiment on MDA-MB-435; > 68.4 µM (inactive) in the experiment on KM12; > 42.5 µM (inactive) in the experiment on HOP-92. Besides, the GI50 in the experiment on MDA-MB-231 is > 57.8 µM (inactive); with UACC-257, > 36.3 µM (inactive); in the experiment on OVCAR-3, > 100 µM (inactive); in the experiment with A498, > 42.9 µM (inactive); in the experiment on SF-295 it was > 100 µM (inactive); in the experiment on OVCAR-8 it was 37.2 µM (inactive). Moreover, the GI50 with M14 is > 69.5 µM (inactive); in the experiment on SK-MEL-5 it was 50.5 µM (inactive); with HOP-62 it was > 100 µM (inactive); in the experiment on UACC-62, > 87.5 µM (inactive); with OVCAR-4, 44.1 µM (inactive); in the experiment on T47D, 47.8 µM (inactive). The GI50 with MOLT-4 was 4.06 µM (inactive).

For the molecule `Cc1ccccc1NC(=O)O/N=C(\Cl)C(C)C`, the GI50 in the experiment on HL-60 is 2.46 µM (inactive); in the experiment on SK-OV-3, 18.7 µM (inactive); in the experiment on EKVX, 2.29 µM (inactive); in the experiment on MDA-MB-435, 13.2 µM (inactive); in the experiment on KM12, 18.6 µM (inactive); in the experiment with HOP-92, 2.28 µM (inactive). Moreover, the GI50 is 17.7 µM (inactive) in the experiment with MDA-MB-231; 14.9 µM (inactive) in the experiment with UACC-257; 4.29 µM (inactive) with OVCAR-3; 17.9 µM (inactive) in the experiment with A498; 18.9 µM (inactive) with SF-295; 17.5 µM (inactive) with OVCAR-8. The GI50 in the experiment with M14 was 3.22 µM (inactive); in the experiment with SK-MEL-5, 11 µM (inactive); in the experiment with HOP-62 it was 17.3 µM (inactive); in the experiment with UACC-62 it was 14.9 µM (inactive); in the experiment on OVCAR-4, 8.45 µM (inactive); in the experiment on T47D, 3.79 µM (inactive). The GI50 in the experiment on MOLT-4 was 2.74 µM (inactive).

In the case of `CC(C)N(C(C)C)S(=O)(=O)C[C@]12CC[C@H](CC13OCC(CS(=O)(=O)c1ccccc1)O3)C2(C)C` (stereo partly specified), the GI50 was 13 µM (inactive) with HL-60; 45.5 µM (inactive) in the experiment with SK-OV-3; 39.3 µM (inactive) in the experiment on EKVX; 47.1 µM (inactive) with MDA-MB-435; 36.4 µM (inactive) in the experiment on KM12; > 24.3 µM (inactive) in the experiment with HOP-92. In addition, the GI50 is > 100 µM (inactive) in the experiment on MDA-MB-231; 28.2 µM (inactive) with UACC-257; 31.3 µM (inactive) with OVCAR-3; 56.6 µM (inactive) with A498; 28.4 µM (inactive) in the experiment with SF-295; 47 µM (inactive) with OVCAR-8. Moreover, the GI50 in the experiment with M14 was 47 µM (inactive); in the experiment on SK-MEL-5, 29.4 µM (inactive); in the experiment with HOP-62, > 51.2 µM (inactive); in the experiment on UACC-62, 49 µM (inactive); in the experiment on OVCAR-4, 40.8 µM (inactive); in the experiment on T47D it was 27.1 µM (inactive). The GI50 with MOLT-4 is 6.98 µM (inactive).

`CCCCCCCCCCCCCCC(O)C[N+](C)(CCO)CCO` (stereo unspecified): the GI50 in the experiment with HL-60 was 0.585 µM (active); with SK-OV-3, 12.9 µM (inactive); in the experiment on EKVX, 17.7 µM (inactive); with MDA-MB-435, 6.12 µM (inactive); with KM12, 1.94 µM (inactive); with HOP-92, 0.885 µM (active). For the same molecule, the GI50 in the experiment on MDA-MB-231 was 1.14 µM (inactive); in the experiment with UACC-257 it was 11.1 µM (inactive); with OVCAR-3, 3.13 µM (inactive); with A498, 4.99 µM (inactive); in the experiment with SF-295, 2.25 µM (inactive); with OVCAR-8, 4.11 µM (inactive). For the same molecule, the GI50 in the experiment with M14 is 1.59 µM (inactive); in the experiment on SK-MEL-5 it was 4.06 µM (inactive); with HOP-62, 2.19 µM (inactive); with UACC-62 it was 2.47 µM (inactive); in the experiment with OVCAR-4, 3.73 µM (inactive); in the experiment with T47D it was 8.07 µM (inactive). In addition, the GI50 in the experiment with MOLT-4 is 1.91 µM (inactive).
